Where two headings read alike, the source gives them in different places. One block for each compound: values may come before it.
How the values were obtained:
[1] = log P by HPLC on reversed-phase column (EEC Directive 79/831 Annex V.A8); assay type: physicochemical; conditions: for logP: Table 1
Procedure: In table 1, the log P values were determined in accordance with EEC Directive 79/831 Annex V.A8 by HPLC (High Performance Liquid Chromatography) on a reversed-phase column (C 18), using the method described below: Temperature: 40° C.; Mobile phases: 0.1% aqueous formic acid and acetonitrile; linear gradient from 10% acetonitrile to 90% acetonitrile. Calibration was carried out using unbranched alkan-2-ones (comprising 3 to 16 carbon atoms) with known log P values (determination of the log P values by the retention times using linear interpolation between two successive alkanones). lambda-max-values were determined using UV-spectra from 200 nm to 400 nm and the peak values of the chromatographic signals.

Uromyces appendiculatus = test: Example G: in vivo preventive test on Uromyces appendiculatus (bean rust); conditions: bean plants; for protection: summary over doses of 500 ppm and 100 ppm; for Efficacy: table G2
Procedure: Example G: In Vivo Preventive Test on Uromyces appendiculatus (Bean Rust) […] Bean plants (“Saxa” variety), sown in starter cups on a 50/50 peat soil pozzolana substrate and grown at 24° C., are treated at the 2 leaf stage (9 cm height) by spraying with the active ingredient prepared as described above. Plants, used as controls, are treated with the mixture of acetone/tween/DMSO/water not containing the active material. After 24 hours, the plants are contaminated by spraying the leaves with an aqueous suspension of Uromyces appendiculatus spores (150 000 spores per mL). The spores are collected from infected plants and are suspended in water containing 2.5 mL/L of Tween 80 at 10%. The contaminated bean plants are incubated for 24 hours at 20° C. and at 100% relative humidity, and then for 10 days at 20° C. and at 70-80% relative humidity. Grading (% of efficacy) is carried out 11 days after the contamination, in comparison with the control plants.

Pyrenophora teres = test: Example N: in vivo preventive test on Pyrenophora teres (barley); conditions: table N; 500 ppm; barley plants; grading 14 days after contamination
Procedure: Example N: In Vivo Preventive Test on Pyrenophora teres (Barley) […] Barley plants (“Plaisant” variety), sown in starter cups on a 50/50 peat soil pozzolana substrate and grown at 22° C., are treated at the 1 leaf stage (10 cm height) by spraying with the active ingredient prepared as described above. Plants, used as controls, are treated with the mixture of acetone/tween/DMSO/water not containing the active material. After 24 hours, the plants are contaminated by spraying the leaves with an aqueous suspension of Pyrenophora teres spores (12 000 spores per mL). The spores are collected from a 12-day-old culture. The contaminated barley plants are incubated for 48 hours at 20° C. and at 100% relative humidity, and then for 12 days at 20° C. at 70-80% relative humidity. Grading (% of efficacy) is carried out 14 days after the contamination, in comparison with the control plants.

Alternaria brassicae = test: Example D: in vivo preventive test on Alternaria brassicae (leaf spot on radish); conditions: table D; 500 ppm; radish plants; grading 6 days after contamination
Procedure: Example D: In Vivo Preventive Test on Alternaria brassicae (Leaf Spot on Radish) […] Radish plants (“Pernod Clair” variety), sown in starter cups on a 50/50 peat soil pozzolana substrate and grown at 17° C., are treated at the cotyledon stage by spraying with the active ingredient prepared as described above. Plants, used as controls, are treated with the mixture of acetone/tween/DMSO/water not containing the active material. After 24 hours, the plants are contaminated by spraying the cotyledons with an aqueous suspension of Alternaria brassicae spores (50 000 spores per mL). The spores are collected from a 15-day-old culture. The contaminated radish plants are incubated at 20° C. and at 100% relative humidity. Grading (% of efficacy) is carried out 6 days after the contamination, in comparison with the control plants.

[2] = HPLC C18, 40° C., 0.1% aqueous formic acid and acetonitrile gradient
[3] = reversed-phase C18 HPLC column, Table 2 (amines IIf), HPLC C18, 40° C., 0.1% aqueous formic acid and acetonitrile gradient, read-out: logP

Compound: Clc1cccc2c1C(CNC1CC1)CCC2 (stereo not shown) [IIf.15, N-[(8-chloro-1,2,3,4-tetrahydronaphthalen-1-yl)methyl]cyclopropanamine]
chromatographic logP [1]: 1.57

logP [1, 2]: 4.08
Compound: Cn1nc(C(F)F)c(C(=O)N(CC2CCc3cccc(Br)c32)C2CC2)c1Cl (stereo not shown) [I.22]

Compound: Cc1cccc2c1CCC2CN(C(=O)c1cn(C)nc1C(F)F)C1CC1 (stereo not shown) [CMP2, N-cyclopropyl-3-(difluoromethyl)-1-methyl-N-[(4-methyl-2,3-dihydro-1H-inden-1-yl)methyl]-1H-pyrazole-4-carboxamide, reference compound]
protection (Uromyces appendiculatus): high (at least 80%) to no protection
Efficacy (Uromyces appendiculatus; dose 100 ppm): 0%
Efficacy (Uromyces appendiculatus; dose 500 ppm): 80%

Compound: Cn1cc(C(=O)N(CC2CCc3cccc(Cl)c32)C2CC2)c(C(F)F)n1 (stereo not shown) [CMP7, N-[(7-chloro-2,3-dihydro-1H-inden-1-yl)methyl]-N-cyclopropyl-3-(difluoromethyl)-1-methyl-1H-pyrazole-4-carboxamide, reference compound]
protection (Uromyces appendiculatus): high (at least 80%) to no protection
Efficacy (Uromyces appendiculatus; dose 100 ppm): 0%
Efficacy (Uromyces appendiculatus; dose 500 ppm): 0%

Compound: Brc1cccc2c1C(CNC1CC1)CC2 (stereo not shown) [IIf.10, N-[(7-bromo-2,3-dihydro-1H-inden-1-yl)methyl]cyclopropanamine]
chromatographic logP [1]: 1.08

logP [1, 2]: 4.06
Compound: COc1cccc2c1CCCC2CN(C(=O)c1c(C(F)F)nn(C)c1F)C1CC1C (stereo not shown) [I.38]

logP [1, 2]: 3.96
Compound: Cn1nc(C(F)F)c(C(=O)N(CC2(C)CCCc3ccccc32)C2CC2)c1F (stereo not shown) [I.39]

Compound: CC1(C)CC(CNC2CC2)c2ccccc21 (stereo not shown) [IIf.5, N-[(3,3-dimethyl-2,3-dihydro-1H-inden-1-yl)methyl]cyclopropanamine]
chromatographic logP [1]: 1.12

Compound: Clc1cc(Cl)c2c(c1)C(CNC1CC1)CC2 (stereo not shown) [IIf.9, N-[(4,6-dichloro-2,3-dihydro-1H-inden-1-yl)methyl]cyclopropanamine]
chromatographic logP [1]: 1.38

Compound: c1ccc2c(c1)CCCCC2CNC1CC1 (stereo not shown) [IIf.16, N-(6,7,8,9-tetrahydro-5H-benzo[7]annulen-5-ylmethyl)cyclopropanamine]
chromatographic logP [1]: 1.17

logP [1, 2]: 4.26
Compound: Cn1nc(C(F)F)c(C(=O)N(CC2CCCc3cccc(Cl)c32)C2CC2)c1Cl (stereo not shown) [I.29]
Efficacy (Pyrenophora teres): 88%

Compound: Cn1cc(C(=O)N(CC2CC(C)(C)c3ccccc32)C2CC2)c(C(F)F)n1 (stereo not shown) [CMP5, N-cyclopropyl-3-(difluoromethyl)-N-[(3,3-dimethyl-2,3-dihydro-1H-inden-1-yl)methyl]-1-methyl-1H-pyrazole-4-carboxamide, reference compound]
protection (Uromyces appendiculatus): high (at least 80%) to no protection
Efficacy (Uromyces appendiculatus; dose 100 ppm): 31%

Compound: Cc1cc(C)c2c(c1)C(CNC1CC1)CCC2 (stereo not shown) [IIf.13, N-[(5,7-dimethyl-1,2,3,4-tetrahydronaphthalen-1-yl)methyl]cyclopropanamine]
chromatographic logP [1]: 1.75

Compound: Cc1ccc2c(c1)CCC2CN(C(=O)c1cn(C)nc1C(F)F)C1CC1 (stereo not shown) [CMP3, N-cyclopropyl-3-(difluoromethyl)-1-methyl-N-[(5-methyl-2,3-dihydro-1H-inden-1-yl)methyl]-1H-pyrazole-4-carboxamide, reference compound]
protection (Uromyces appendiculatus): high (at least 80%) to no protection
Efficacy (Uromyces appendiculatus; dose 100 ppm): 0%
Efficacy (Uromyces appendiculatus; dose 500 ppm): 34%

chromatographic logP [1, 3]: 0.86
Compound: c1ccc2c(c1)CSCC2CNC1CC1 (stereo not shown) [IIf.17, N-(3,4-dihydro-1H-isothiochromen-4-ylmethyl)cyclopropanamine]

chromatographic logP [1, 3]: 1.26
Compound: Clc1ccc2c(c1)C(CNC1CC1)CCS2 (stereo not shown) [IIf.19, N-[(6-chloro-3,4-dihydro-2H-thiochromen-4-yl)methyl]cyclopropanamine]

chromatographic logP [1]: 4.44
Compound: Cc1cc(C)c2c(c1)C(CN(C(=O)c1c(C(F)F)nn(C)c1F)C1CC1)CCC2 (stereo not shown) [I.37, N-cyclopropyl-3-(difluoromethyl)-N-[(5,7-dimethyl-1,2,3,4-tetrahydronaphthalen-1-yl)methyl]-5-fluoro-1-methyl-1H-pyrazole-4-carboxamide]

Compound: Fc1cccc2c1CCC2CNC1CC1 (stereo not shown) [IIf.4, N-[(4-fluoro-2,3-dihydro-1H-inden-1-yl)methyl]cyclopropanamine]
chromatographic logP [1]: 0.82

logP [1, 2]: 3.17
Compound: Cn1nc(C(F)F)c(C(=O)N(CC2CCOc3ccccc32)C2CC2)c1Cl (stereo not shown) [I.32]
Efficacy (Pyrenophora teres): 88%

logP [1, 2]: 4.11
Compound: CC1CCC(CN(C(=O)c2c(C(F)F)nn(C)c2Cl)C2CC2)c2ccccc21 (stereo not shown) [I.25]
Efficacy (Pyrenophora teres): 94%
Efficacy (Alternaria brassicae): 94%

logP [1, 2]: 3.96
Compound: Cn1nc(C(F)F)c(C(=O)N(CC2CCc3cccc(Cl)c32)C2CC2)c1Cl (stereo not shown) [I.15]
Efficacy (Pyrenophora teres): 71%

Compound: Cc1ccc2c(c1)CCC2CNC1CC1 (stereo not shown) [IIf.3, N-[(5-methyl-2,3-dihydro-1H-inden-1-yl)methyl]cyclopropanamine]
chromatographic logP [1]: 0.95

Compound: CC1CCC(CNC2CC2)c2ccccc21 (stereo not shown) [IIf.12, N-[(4-methyl-1,2,3,4-tetrahydronaphthalen-1-yl)methyl]cyclopropanamine]
chromatographic logP [1]: 1.22

Compound: Clc1ccc2c(c1)CCC2CNC1CC1 (stereo not shown) [IIf.6, N-[(5-chloro-2,3-dihydro-1H-inden-1-yl)methyl]cyclopropanamine]
chromatographic logP [1]: 1.11

Compound: Cn1cc(C(=O)N(CC2CCc3ccccc32)C2CC2)c(C(F)F)n1 (stereo not shown) [CMP1, N-cyclopropyl-3-(difluoromethyl)-N-(2,3-dihydro-1H-inden-1-ylmethyl)-1-methyl-1H-pyrazole-4-carboxamide, reference compound]
protection (Uromyces appendiculatus): high (at least 80%) to no protection
Efficacy (Uromyces appendiculatus; dose 100 ppm): 0%
Efficacy (Uromyces appendiculatus; dose 500 ppm): 13%

Compound: Cc1cccc2c1CCC2CNC1CC1 (stereo not shown) [IIf.2, N-[(4-methyl-2,3-dihydro-1H-inden-1-yl)methyl]cyclopropanamine]
chromatographic logP [1]: 1

chromatographic logP [1, 3]: 1.05
Compound: Fc1ccc2c(c1)C(CNC1CC1)CCS2 (stereo not shown) [IIf.18, N-[(6-fluoro-3,4-dihydro-2H-thiochromen-4-yl)methyl]cyclopropanamine]

Compound: Cn1cc(C(=O)N(CC2CCc3c(F)cccc32)C2CC2)c(C(F)F)n1 (stereo not shown) [CMP4, N-cyclopropyl-3-(difluoromethyl)-N-[(4-fluoro-2,3-dihydro-1H-inden-1-yl)methyl]-1-methyl-1H-pyrazole-4-carboxamide, reference compound]
protection (Uromyces appendiculatus): high (at least 80%) to no protection
Efficacy (Uromyces appendiculatus; dose 100 ppm): 0%
Efficacy (Uromyces appendiculatus; dose 500 ppm): 6%

Compound: Clc1cccc2c1C(CNC1CC1)CC2 (stereo not shown) [IIf.7, N-[(7-chloro-2,3-dihydro-1H-inden-1-yl)methyl]cyclopropanamine]
chromatographic logP [1]: 0.95

Compound: c1ccc2c(c1)CCC2CNC1CC1 (stereo not shown) [IIf.1, N-(2,3-dihydro-1H-inden-1-ylmethyl)cyclopropanamine]
chromatographic logP [1]: 0.75

Compound: CC1(CNC2CC2)CCCc2ccccc21 (stereo not shown) [IIf.11, N-[(1-methyl-1,2,3,4-tetrahydronaphthalen-1-yl)methyl]cyclopropanamine]
chromatographic logP [1]: 1.1

Compound: FC(F)(F)c1ccc2c(c1)C(CNC1CC1)CC2 (stereo not shown) [IIf.8, N-{[6-(trifluoromethyl)-2,3-dihydro-1H-inden-1-yl]methyl}cyclopropanamine]
chromatographic logP [1]: 1.25

Compound: Cn1cc(C(=O)N(CC2CCc3cc(Cl)ccc32)C2CC2)c(C(F)F)n1 (stereo not shown) [CMP6, N-[(5-chloro-2,3-dihydro-1H-inden-1-yl)methyl]-N-cyclopropyl-3-(difluoromethyl)-1-methyl-1H-pyrazole-4-carboxamide, reference compound]
protection (Uromyces appendiculatus): high (at least 80%) to no protection
Efficacy (Uromyces appendiculatus; dose 100 ppm): 0%
Efficacy (Uromyces appendiculatus; dose 500 ppm): 19%

Compound: COc1cccc2c1CCCC2CNC1CC1 (stereo not shown) [IIf.14, N-[(5-methoxy-1,2,3,4-tetrahydronaphthalen-1-yl)methyl]cyclopropanamine]
chromatographic logP [1]: 1.28

Reference: patent US9686985B2, “Fungicide N-cycloalkyl-N-bicyclicmethylene-carboxamide derivatives” (BAYER INTELLECTUAL PROPERTY GMBH, priority 2012, dated 2017)
